Experimental findings from US11566028B2, “Bicyclic heterocycles as FGFR inhibitors” (Incyte Corporation, priority 2019, dated 2023) are described below.

Where two headings read alike, the source gives them in different places.

Assay type in all cases: biochemical
Experiment [1] has as its target wild-type un-phosphorylated FGFR3 protein (Homo sapiens (Human), UniProt P22607). The experiment can be described thus: FGFR Enzymatic Assay (FRET peptide phosphorylation), FGFR3. Conditions: pre-incubated for 4 hours.
For the next experiment, the target named is FGFR1 (Homo sapiens (Human), UniProt P11362). The experiment can be described thus: FGFR Enzymatic Assay (FRET peptide phosphorylation), FGFR1. To be noted: pre-incubated for 4 hours.
Chain of FGFR1 (P11362 22-822): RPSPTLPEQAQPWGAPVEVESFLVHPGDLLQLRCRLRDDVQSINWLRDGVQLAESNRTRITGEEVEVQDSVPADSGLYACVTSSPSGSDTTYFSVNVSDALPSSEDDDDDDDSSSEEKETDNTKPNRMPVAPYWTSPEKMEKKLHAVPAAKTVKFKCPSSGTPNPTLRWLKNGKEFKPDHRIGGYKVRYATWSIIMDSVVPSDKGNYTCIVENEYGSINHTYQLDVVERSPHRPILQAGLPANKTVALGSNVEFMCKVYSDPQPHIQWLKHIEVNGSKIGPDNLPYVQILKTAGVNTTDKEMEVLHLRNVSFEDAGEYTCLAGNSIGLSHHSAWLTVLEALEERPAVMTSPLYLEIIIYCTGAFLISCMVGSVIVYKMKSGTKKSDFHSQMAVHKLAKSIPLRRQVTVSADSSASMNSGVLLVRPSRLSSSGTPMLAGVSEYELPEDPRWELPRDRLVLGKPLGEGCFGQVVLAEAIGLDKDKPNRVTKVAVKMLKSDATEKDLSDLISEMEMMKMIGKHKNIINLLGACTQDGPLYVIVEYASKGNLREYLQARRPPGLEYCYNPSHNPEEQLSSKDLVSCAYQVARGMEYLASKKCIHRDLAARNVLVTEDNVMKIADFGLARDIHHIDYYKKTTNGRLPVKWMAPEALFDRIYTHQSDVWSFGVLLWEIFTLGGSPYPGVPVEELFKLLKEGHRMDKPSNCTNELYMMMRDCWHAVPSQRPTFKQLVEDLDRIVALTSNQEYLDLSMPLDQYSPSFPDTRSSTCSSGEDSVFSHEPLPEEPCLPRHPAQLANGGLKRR
The next experiment deals with FGFR2 (Homo sapiens (Human), UniProt P21802). The experiment can be described thus: FGFR Enzymatic Assay (FRET peptide phosphorylation), FGFR2.
Chain of FGFR2 (P21802 22-821): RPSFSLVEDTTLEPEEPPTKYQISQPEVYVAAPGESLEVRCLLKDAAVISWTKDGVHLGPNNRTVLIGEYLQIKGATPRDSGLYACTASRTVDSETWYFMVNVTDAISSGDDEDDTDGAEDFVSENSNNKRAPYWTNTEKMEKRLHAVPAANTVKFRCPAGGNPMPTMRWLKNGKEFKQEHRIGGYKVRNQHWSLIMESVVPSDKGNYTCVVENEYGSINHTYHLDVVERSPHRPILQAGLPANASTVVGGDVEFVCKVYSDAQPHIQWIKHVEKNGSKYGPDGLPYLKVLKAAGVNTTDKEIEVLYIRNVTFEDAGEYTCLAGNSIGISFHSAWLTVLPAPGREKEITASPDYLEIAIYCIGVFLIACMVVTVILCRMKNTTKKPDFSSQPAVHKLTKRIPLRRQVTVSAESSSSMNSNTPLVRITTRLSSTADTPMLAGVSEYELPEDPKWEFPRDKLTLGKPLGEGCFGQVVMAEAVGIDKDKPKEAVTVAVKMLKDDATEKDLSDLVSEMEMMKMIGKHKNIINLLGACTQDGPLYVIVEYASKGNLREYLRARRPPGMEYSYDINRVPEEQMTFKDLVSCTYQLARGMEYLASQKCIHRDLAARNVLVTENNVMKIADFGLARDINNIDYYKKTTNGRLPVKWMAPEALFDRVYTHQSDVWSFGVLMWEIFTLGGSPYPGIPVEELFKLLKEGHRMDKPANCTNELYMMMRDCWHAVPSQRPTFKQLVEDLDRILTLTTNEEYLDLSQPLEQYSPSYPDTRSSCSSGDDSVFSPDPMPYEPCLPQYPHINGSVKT
The target in the next experiment is FGFR4 (Homo sapiens (Human), UniProt P22455). The experiment can be described thus: FGFR Enzymatic Assay (FRET peptide phosphorylation), FGFR4.
Chain of FGFR4 (P22455 22-802): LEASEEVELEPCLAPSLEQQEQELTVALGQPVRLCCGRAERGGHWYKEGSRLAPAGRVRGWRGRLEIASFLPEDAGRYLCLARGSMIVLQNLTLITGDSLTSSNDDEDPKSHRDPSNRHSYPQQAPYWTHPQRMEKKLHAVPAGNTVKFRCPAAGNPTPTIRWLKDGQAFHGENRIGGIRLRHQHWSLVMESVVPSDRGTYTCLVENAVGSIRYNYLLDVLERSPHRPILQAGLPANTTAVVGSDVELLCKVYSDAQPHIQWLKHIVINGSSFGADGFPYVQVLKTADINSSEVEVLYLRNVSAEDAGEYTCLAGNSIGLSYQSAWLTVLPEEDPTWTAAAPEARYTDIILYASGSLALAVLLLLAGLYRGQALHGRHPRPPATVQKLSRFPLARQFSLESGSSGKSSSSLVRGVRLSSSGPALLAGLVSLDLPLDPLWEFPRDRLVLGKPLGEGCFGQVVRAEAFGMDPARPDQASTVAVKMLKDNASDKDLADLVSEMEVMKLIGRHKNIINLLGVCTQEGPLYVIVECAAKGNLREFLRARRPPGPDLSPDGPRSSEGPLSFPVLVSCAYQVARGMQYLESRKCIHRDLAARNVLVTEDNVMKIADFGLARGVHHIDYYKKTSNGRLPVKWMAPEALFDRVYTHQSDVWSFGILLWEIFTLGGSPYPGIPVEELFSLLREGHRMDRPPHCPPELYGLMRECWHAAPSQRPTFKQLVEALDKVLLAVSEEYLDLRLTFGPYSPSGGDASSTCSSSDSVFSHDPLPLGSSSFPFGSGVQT

Chain of wild-type un-phosphorylated FGFR3 protein (P22607 23-806): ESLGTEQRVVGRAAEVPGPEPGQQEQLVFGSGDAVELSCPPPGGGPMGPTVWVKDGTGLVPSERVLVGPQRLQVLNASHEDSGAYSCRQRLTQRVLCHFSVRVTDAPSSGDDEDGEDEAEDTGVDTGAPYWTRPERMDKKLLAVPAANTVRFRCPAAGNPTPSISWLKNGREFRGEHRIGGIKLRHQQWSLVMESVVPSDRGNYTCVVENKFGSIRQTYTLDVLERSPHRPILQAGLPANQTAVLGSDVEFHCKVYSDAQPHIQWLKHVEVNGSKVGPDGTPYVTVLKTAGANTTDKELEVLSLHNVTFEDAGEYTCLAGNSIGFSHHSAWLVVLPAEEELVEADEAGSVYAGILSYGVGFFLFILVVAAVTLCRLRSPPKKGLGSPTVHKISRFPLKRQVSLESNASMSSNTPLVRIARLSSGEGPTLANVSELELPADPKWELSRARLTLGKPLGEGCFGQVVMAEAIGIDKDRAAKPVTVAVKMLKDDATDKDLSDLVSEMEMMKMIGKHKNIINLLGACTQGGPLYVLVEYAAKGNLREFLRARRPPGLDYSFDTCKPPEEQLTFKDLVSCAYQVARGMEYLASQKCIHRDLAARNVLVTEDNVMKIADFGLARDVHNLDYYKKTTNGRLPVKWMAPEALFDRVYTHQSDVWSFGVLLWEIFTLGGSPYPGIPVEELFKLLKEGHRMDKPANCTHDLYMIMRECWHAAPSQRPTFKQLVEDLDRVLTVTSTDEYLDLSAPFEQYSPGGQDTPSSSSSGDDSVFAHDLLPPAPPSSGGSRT

As to `CNC(=O)c1cc(C)c(F)c(-c2cnn3cc(-c4cnn(C5CCN(C)CC5)c4)c(N[C@H]4CCOC4)nc23)c1` [Example 34, (S)-4-Fluoro-N,3-dimethyl-5-(6-(1-(1-methylpiperidin-4-yl)-1H-pyrazol-4-yl)-5-((tetrahydrofuran-3-yl)amino)pyrazolo[1,5-a]pyrimidin-3-yl)benzamide], the IC50 in experiment [1] is less than 10 nM; against FGFR1, 10 to 30 nM; against FGFR2 (pre-incubated for 4 hours), less than 10 nM; against FGFR4 (pre-incubated for 4 hours) it was 30 to 200 nM.
Consider `CNC(=O)c1cc(C)c(F)c(-c2cnn3cc(-c4cnc(C)o4)c(N[C@H]4CCOC4)nc23)c1` [Example 42, (S)-4-Fluoro-N,3-dimethyl-5-(6-(2-methyloxazol-5-y1)-5-((tetrahydrofuran-3-yl)amino)pyrazolo[1,5-a]pyrimidin-3-yl)benzamide], for which the IC50 in experiment [1] was less than 10 nM; at FGFR1, 10 to 30 nM; at FGFR2, less than 10 nM; at FGFR4, 30 to 200 nM.
Turning to `CNC(=O)c1cc(F)c(F)c(-c2cnn3cc(-c4cnn(CCN5CCOCC5)c4)c(N[C@H]4CCOC4)nc23)c1` [Example 55, (S)-3,4-Difluoro-N-methy1-5-(6-(1-(2-morpholinoethyl)-1H-pyrazol-4-y1)-5-((tetrahydrofuran-3-yl)amino)pyrazolo[1,5-a]pyrimidin-3-yl)benzamide], the IC50 was less than 10 nM in experiment [1], less than 10 nM on FGFR1, less than 10 nM against FGFR2 and 30 to 200 nM at FGFR4.

In general, IC50 refers to the point on the concentration scale where inhibition reaches its midpoint.
